Reference: article PMC12221116, “Novel Quinazolinones Active against Multidrug‐Resistant Mycobacterium Tuberculosis: Synthesis, Antimicrobial Evaluation, and in Silico Exploration of Penicillin‐Binding Protein 1A as a Potential Target” (Chemmedchem, 2025)
≈ marks a conversion by molar mass, not a printed value. Where two headings read alike, the source gives them in different places.

Experiments:
MRC-5 [1] = experiment: cells; details: Homo sapiens
M. kansasii = experiment: Microplate Alamar Blue assay, MIC; type: cell-based, Mycobacterium kansasii; details: for MIC: Mycobacterium kansasii, read-out: Antimycobacterial Activity MIC M. kans.
Mtb H37Rv = experiment: Microplate Alamar Blue assay, MIC; type: cell-based, Mycobacterium tuberculosis; details: for MIC: Mycobacterium tuberculosis, H37RV
M. smegmatis = experiment: Microdilution broth resazurin assay, MIC; type: cell-based, Mycolicibacterium smegmatis
Mtb H37Ra = experiment: Microdilution broth resazurin assay, MIC; type: cell-based, Mycobacterium tuberculosis
M. aurum = experiment: Microdilution broth resazurin assay, MIC; type: cell-based, Mycolicibacterium aurum
HepG2 [2] = experiment: cells; details: Homo sapiens
M. avium = experiment: Microdilution broth resazurin assay, MIC; type: cell-based, Mycobacterium avium
HepG2 [3] = details: cytotoxicity
MRC-5 [4] = details: cytotoxicity
[5] = MRC5, 24 h, read-out: IC50 for MRC-5 [24 h]
[6] = MRC5, 72 h, read-out: IC50 for MRC-5 [72 h]
[7] = Microplate Alamar Blue assay, read-out: Antimycobacterial Activity MIC Mtb H37Rv
[8] = read-out: Antimycobacterial Activity MIC Mtb H37Rv, Table S5 matching pairs series A and B
[9] = Table S5 matching pairs series A and B
[10] = Mycobacterium tuberculosis, H37RA, read-out: Antimycobacterial Activity MIC Mtb H37Ra
[11] = HepG2, 24 h, read-out: IC50 for HepG2 [24 h]
[12] = HepG2, 72 h, read-out: IC50 for HepG2 [72 h]
[13] = Mycobacterium avium; read-out: Antimycobacterial Activity MIC M. avium
[14] = Mycolicibacterium smegmatis, read-out: Antimycobacterial Activity MIC M. smeg.
[15] = Mycolicibacterium aurum, read-out: Antimycobacterial Activity MIC M. aurum
[16] = Mycobacterium avium, read-out: Antimycobacterial Activity MIC M. avium
[17] = Mycobacterium tuberculosis, H37RA; read-out: Antimycobacterial Activity MIC Mtb H37Ra

| Compound | MIC (M. kansasii) | MIC (Mtb H37Rv; [7]) | MIC (Mtb H37Rv; [8]) | Antimycobacterial Activity MIC Mtb H37Ra (Mtb H37Ra) | MIC (Mtb H37Ra; [10]) | Antimycobacterial Activity MIC M. avium (M. avium; [9]) | Antimycobacterial Activity MIC M. smeg. (M. smegmatis) | MIC (M. smegmatis; [14]) | Antimycobacterial Activity MIC M. aurum (M. aurum) | MIC (M. aurum; [15]) | MIC (M. avium; [16]) | MIC (Mtb H37Ra; [17]) | also measured |
| --- | --- | --- | --- | --- | --- | --- | --- | --- | --- | --- | --- | --- | --- |
| Cc1nc2cc(Cl)ccc2c(=O)n1Cc1cccc(Cl)c1 [Compound 21] | > 100 µg/mL | 25 µg/mL (≈ 78.3 µM) | 25 µg/mL (≈ 78.3 µM) | 15.625 µg/mL | 15.6 µg/mL (≈ 49 µM) | ≥ 250 µg/mL | – | – | – | – | – | – | IC50 (MRC-5 [1]; [5]): > 50 µM; IC50 (MRC-5 [1]; [6]): > 50 µM; MIC (M. smegmatis; Mycolicibacterium smegmatis; read-out: Antimycobacterial Activity MIC M. smeg.): ≥ 250 µg/mL; Antimycobacterial Activity MIC M. smeg. (M. smegmatis; [9]): ≥ 250 µg/mL; MIC (M. aurum; Mycolicibacterium aurum; read-out: Antimycobacterial Activity MIC M. aurum): ≥ 250 µg/mL; Antimycobacterial Activity MIC M. aurum (M. aurum; [9]): ≥ 250 µg/mL; IC50 (HepG2 [2]; [11]): > 50 µM; IC50 (HepG2 [2]; [12]): > 50 µM; MIC (M. avium; [13]): ≥ 250 µg/mL |
| Cc1nc2cc(Cl)ccc2c(=O)n1Cc1ccc(Cl)c(Cl)c1 [Compound 24] | 25 µg/mL (≈ 70.7 µM) | 50 µg/mL (≈ 141 µM) | > 100 µg/mL | 15.625 µg/mL | 15.6 µg/mL (≈ 44.2 µM) | – | ≥125 µg/mL | ≥ 125 µg/mL | ≥125 µg/mL | ≥ 125 µg/mL | ≥ 125 µg/mL | – | IC50 (MRC-5 [1]; [5]): > 50 µM; IC50 (MRC-5 [1]; [6]): > 50 µM; Antimycobacterial Activity MIC M. kans. (M. kansasii; [9]): 25 µg/mL; IC50 (HepG2 [2]; [11]): > 50 µM; IC50 (HepG2 [2]; [12]): > 50 µM; Antimycobacterial Activity MIC M. avium (M. avium): ≥125 µg/mL |
| Cc1nc2cc(Cl)ccc2c(=O)n1Cc1ccc(O)cc1 [Compound 14] | > 100 µg/mL | > 100 µg/mL | – | – | – | – | – | 62.5 µg/mL (≈ 208 µM) | – | 62.5 µg/mL (≈ 208 µM) | 62.5 µg/mL (≈ 208 µM) | 62.5 µg/mL (≈ 208 µM) | – |
| Cc1nc2cc(Cl)ccc2c(=O)n1/N=C/c1ccccc1[N+](=O)[O-] [Compound 26] | > 25 µg/mL | > 25 µg/mL | – | – | – | – | – | ≥ 62.5 µg/mL | – | ≥ 62.5 µg/mL | ≥ 62.5 µg/mL | ≥ 62.5 µg/mL | – |
| Cc1nc2cc(Cl)ccc2c(=O)n1/N=C/c1cccnc1 [Compound 30] | > 25 µg/mL | > 25 µg/mL | – | – | – | – | – | ≥ 31.2 µg/mL | – | ≥ 31.2 µg/mL | ≥ 31.2 µg/mL | ≥ 31.2 µg/mL | – |
| COc1ccc(/C=N/n2c(C)nc3cc(Cl)ccc3c2=O)cc1 [Compound 40] | > 50 µg/mL | > 50 µg/mL | – | – | – | – | – | ≥ 15.6 µg/mL | – | ≥ 15.6 µg/mL | ≥ 15.6 µg/mL | ≥ 15.6 µg/mL | – |
| Cc1nc2cc(Cl)ccc2c(=O)n1/N=C/c1ccc(O)cc1O [Compound 33] | > 100 µg/mL | > 100 µg/mL | – | – | – | – | – | ≥ 62.5 µg/mL | – | ≥ 62.5 µg/mL | ≥ 62.5 µg/mL | ≥ 62.5 µg/mL | – |
| Cc1nc2cc(Cl)ccc2c(=O)n1/N=C/c1ccc(N(C)C)cc1 [Compound 45] | > 25 µg/mL | > 25 µg/mL | – | – | – | – | – | ≥ 15.6 µg/mL | – | ≥ 15.6 µg/mL | ≥ 15.6 µg/mL | ≥ 15.6 µg/mL | – |
| COc1cccc(Cn2c(C)nc3cc(Cl)ccc3c2=O)c1 [Compound 16] | > 100 µg/mL | > 100 µg/mL | > 100 µg/mL | 62.5 µg/mL | 62.5 µg/mL (≈ 199 µM) | ≥ 500 µg/mL | ≥125 µg/mL | ≥ 125 µg/mL | ≥125 µg/mL | ≥ 125 µg/mL | – | – | MIC (M. avium; [13]): ≥ 500 µg/mL |
| COc1cccc(Cn2c(C)nc3ccccc3c2=O)c1 [Compound 2] | – | – | – | 62.5 µg/mL | – | 62.5 µg/mL | 250 µg/mL | – | 125 µg/mL | – | – | – | Antimycobacterial Activity MIC M. kans. (M. kansasii): 100 µg/mL; Antimycobacterial Activity MIC Mtb H37Rv (Mtb H37Rv; Microplate Alamar Blue assay): 100 µg/mL; Antimycobacterial Activity MIC M. smeg. (M. smegmatis; [9]): 250 µg/mL; Antimycobacterial Activity MIC Mtb H37Ra (Mtb H37Ra; [9]): 62.5 µg/mL; Antimycobacterial Activity MIC M. aurum (M. aurum; [9]): 125 µg/mL; IC50 (HepG2 [3]; read-out: IC50 for HepG2 [24 h], 24 h incubation): 305 ± 3 µM; IC50 (HepG2 [3]; read-out: IC50 for HepG2 [72 h], 72 h incubation): 135 ± 6 µM; IC50 (MRC-5 [4]; read-out: IC50 for MRC-5 [24 h], 24 h incubation): > 300 µM; IC50 (MRC-5 [4]; read-out: IC50 for MRC-5 [72 h], 72 h incubation): 215 ± 24 µM; Antimycobacterial Activity MIC M. avium (M. avium): 62.5 µg/mL |
